Test results published in US11969497B2, “Method for producing an Entada seed extract enriched with metabolites of interest, extract produced by such a method, and cosmetic and dermocosmetic applications of such an extract” (EXSYMOL, priority 2018, dated 2024).

Key:
MMP-1 metalloproteinase = assay: MMP-1 secretion by primary human fibroblasts (NHDF) exposed to blue light, ELISA (test 6); format: cell-based; details: 5 mM; blue light 30 J/cm^2; non-irradiated 100, irradiated control 214
Description: Primary human fibroblasts (“NHDF”) were isolated from a mammoplasty from a patient. The NHDFs were cultured in DMEM medium supplemented with 4.5 g/l of glucose and 10% of FCS. They were maintained in an atmosphere at 37° C. and 10% CO2. On D-3, the fibroblasts were inoculated in 24-well plates at a rate of 15,000 cells/cm^2. On D-1, the NHDFs were incubated at 37° C. and 10% CO2 for 24 h with the extract of Entada seeds according to the invention. […] After irradiation, the cells were reincubated at 37° C. and 10% CO2 for an additional 24 h and the culture supernatants were harvested in order to perform an ELISA assay of the MMP-1 metalloproteinase (Abcam kit, ab100603). The results obtained were normalized with respect to the quantity of cells per condition and subjected to statistical analysis in triplicate.

[1] = DPPH antioxidant test (test 2b); details: absorbance 517 nm after 30 minutes
Description: (§1) This solution was then was diluted in water to obtain, under the test conditions, an absorbance of 0.5 at 734 nm. In each well of a 96-well microplate, were placed 100 μL of a solution of the extract according to the invention to be evaluated and 150 μL of oxidized ABTS solution. After 6 minutes, the absorbance was measured at 734 nm.
Experimentally by the DPPH test in each well of a 96 well micro plate, were placed 100 μL of a solution of the active to be evaluated and 100 μL of an ethanol solution of 1,1-diphenyl-2-picrylhydrazyle (DPPH-Aldrich D913-2) at 200 μM. After 30 minutes, the absorbance was measured at 517 nm.

[2] = ABTS antioxidant test (test 2a); details: absorbance 734 nm after 6 minutes
Description: as §1

[3] = Photo-induced isomerization of trans-urocanic acid under UV-B (test 1a/1b), HPLC assay; details: test 1b
Description: Two series of experiments were performed, the first with a fixed dose UV-B radiation of 300 mJ/cm^2 (test 1a), the second with a varying dose of UV-B radiation (test 1b) and using as a control a synthetic replica of entadamide A, namely the compound “(E)-N-(2-hydroxyethyl)-3-[…]” which is the subject of patent application EP 3103436.
Experimentally, the test was carried out in a 0.01 M citrate buffer of pH 5.5, the slightly acidic pH being more in relation to the acidity of the superficial skin layers in which the trans-urocanic acid marker is located. Thus, the solutions to be irradiated (20 mL), namely the control with or without the extract according to the invention, were placed in glass Petri dishes, uncovered, then subjected at room temperature to UV-B irradiation using a UV-B oven (LabOSI®). Aliquots (500 μL) were then sampled in HPLC vials to be immediately stored protected from light and at low temperature (+4/+8° C.), prior to analysis by HPLC assay. Chromatographic profiles were thus obtained, and the residual amount of trans-urocanic acid was determined.
Experimentally concerning test 1b, the study was carried out in an almost identical manner to test 1a above, with first checking that under the experimental conditions defined, trans-urocanic acid generated a significant amount of cis-urocanic acid which can be measured by HPLC analysis. […]

| Structure (SMILES) | % of MMP-1 secreted (MMP-1 metalloproteinase) [%] | EC50 [1] [µM] | EC50 [2] [µM] | contribution of non-hydrolyzed phaseoloidin in the photoprotective activity of the extract against UV-B radiation [3] [%] |
| --- | --- | --- | --- | --- |
| CC(=O)N[C@@H](CS)C(=O)O [N-acetyl-L-cysteine (NAC), N-acetyl-L-cysteine] | 61 |  |  |  |
| O=C1O[C@H]([C@@H](O)CO)C(O)=C1O [ascorbic acid] |  | 25 | 24 |  |
| O=C(O)Cc1cc(O)ccc1O[C@@H]1O[C@H](CO)[C@@H](O)[C@H](O)[C@H]1O [phaseoloidin, 2-O-β-D-glucopyranoside derivative of homogentisic acid] |  | 540 | 8.3 | > 25 |
